Assay results taken from article PMC7073524 (Marine Drugs, 2020).
Read-outs that look alike come from different tables or passages of the source.

Tests used:
rat brain α7 receptors = rat brain α7 receptors (Rattus norvegicus, UniProt Q05941); test: biochemical; type: binding
human α4β2 nAChR [1] = target: T1, human α4β2 nAChR (Homo sapiens, UniProt P17787+P43681); test: Two-electrode voltage-clamp, human α4β2 nAChRs expressed in Xenopus oocytes; type: cell-based; conditions: ± SEM; for EC50: EC50, potency, peak current; for Imax (% ACh): efficacy, peak current normalized to 100 µM ACh
T1 construct: expressed in transfected cells; host or cells: Xenopus laevis oocytes (mRNA injection)
T1 sequence (P43681 29-627 limits assumed): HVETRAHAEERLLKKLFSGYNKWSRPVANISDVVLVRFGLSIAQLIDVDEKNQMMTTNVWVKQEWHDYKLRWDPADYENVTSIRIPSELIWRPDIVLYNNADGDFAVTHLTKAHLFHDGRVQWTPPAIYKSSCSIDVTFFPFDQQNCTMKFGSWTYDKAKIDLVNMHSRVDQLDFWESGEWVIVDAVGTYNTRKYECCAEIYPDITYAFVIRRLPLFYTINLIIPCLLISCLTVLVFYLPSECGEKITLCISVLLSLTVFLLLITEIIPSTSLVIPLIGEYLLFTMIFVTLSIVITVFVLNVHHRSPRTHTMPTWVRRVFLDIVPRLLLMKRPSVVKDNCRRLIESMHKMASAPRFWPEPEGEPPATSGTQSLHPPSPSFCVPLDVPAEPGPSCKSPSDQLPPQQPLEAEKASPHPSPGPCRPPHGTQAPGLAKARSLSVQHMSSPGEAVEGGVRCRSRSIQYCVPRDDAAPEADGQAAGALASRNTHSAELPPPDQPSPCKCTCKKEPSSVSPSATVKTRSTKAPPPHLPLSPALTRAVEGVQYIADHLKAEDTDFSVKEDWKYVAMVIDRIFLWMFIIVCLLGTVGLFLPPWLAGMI
T1 sequence (P17787 26-502): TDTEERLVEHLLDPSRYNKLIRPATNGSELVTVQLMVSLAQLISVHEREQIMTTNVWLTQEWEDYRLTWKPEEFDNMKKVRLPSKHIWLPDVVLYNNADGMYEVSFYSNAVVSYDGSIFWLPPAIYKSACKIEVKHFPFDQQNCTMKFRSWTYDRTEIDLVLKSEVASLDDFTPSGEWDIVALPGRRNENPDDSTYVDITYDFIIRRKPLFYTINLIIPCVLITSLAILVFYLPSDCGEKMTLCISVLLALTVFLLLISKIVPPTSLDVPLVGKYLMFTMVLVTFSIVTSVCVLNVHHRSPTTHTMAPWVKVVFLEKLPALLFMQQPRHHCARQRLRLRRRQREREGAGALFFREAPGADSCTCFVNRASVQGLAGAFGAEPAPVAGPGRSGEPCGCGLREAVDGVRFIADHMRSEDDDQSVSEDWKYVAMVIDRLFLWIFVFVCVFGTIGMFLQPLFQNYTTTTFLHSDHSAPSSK
Excerpt: (§1) It has been especially useful for investigating α7 nAChRs, due to the difficulties that were initially encountered in functional expression of this particular homomeric nAChR in mammalian cells. We measured the peak current response of an oocyte to a given concentration of the compound and expressed its amplitude with respect to the mean response to ACh before and after the compound test concentration.
(§2) Oocytes were harvested from Xenopus laevis frogs obtained from NASCO Scientific Co. (Ft. Atkinson, WI, USA) according to an accepted Kem laboratory Institutional Animal Care Committee (IACUC) approved protocol. We have already described the methods of oocyte injection, perfusion, rapid solution changes, and recording in considerable detail. Oocytes were injected with identical amounts (usually 12 ng) of human α4 and β2 mRNAs for α4β2 nAChR expression, or 20 ng of human α7 mRNAs for α7 nAChR expression. The two-electrode voltage-clamp method was used for recording peak responses (holding Em-50 mV for α4β2 and-60 mV for α7 receptors). […] The oocyte was no longer used if the current response to ACh decreased more than 20% during the experiment. Compounds dissolved in Barth’s saline (pH 7.3) were rapidly administered by an AutoMate perfusion system. Compound applications were separated by a 5 min wash period. We utilized GraphPad Prism software to analyze the data, always assuming a single homogeneous receptor population.

human α7 nAChR = target: T2, human α7 nAChR (Homo sapiens, UniProt P36544); test: Two-electrode voltage-clamp, human α7 nAChRs expressed in Xenopus oocytes; type: cell-based; conditions: for EC50: EC50, potency, peak current estimates; for EC50 / Imax (% ACh): ± SEM; for Imax (% ACh): efficacy, peak current normalized to 1 mM ACh; for agonist character at α7 nAChRs: in words
T2 construct: expressed in transfected cells; host or cells: Xenopus laevis oocytes (mRNA injection)
T2 sequence (P36544 23-502): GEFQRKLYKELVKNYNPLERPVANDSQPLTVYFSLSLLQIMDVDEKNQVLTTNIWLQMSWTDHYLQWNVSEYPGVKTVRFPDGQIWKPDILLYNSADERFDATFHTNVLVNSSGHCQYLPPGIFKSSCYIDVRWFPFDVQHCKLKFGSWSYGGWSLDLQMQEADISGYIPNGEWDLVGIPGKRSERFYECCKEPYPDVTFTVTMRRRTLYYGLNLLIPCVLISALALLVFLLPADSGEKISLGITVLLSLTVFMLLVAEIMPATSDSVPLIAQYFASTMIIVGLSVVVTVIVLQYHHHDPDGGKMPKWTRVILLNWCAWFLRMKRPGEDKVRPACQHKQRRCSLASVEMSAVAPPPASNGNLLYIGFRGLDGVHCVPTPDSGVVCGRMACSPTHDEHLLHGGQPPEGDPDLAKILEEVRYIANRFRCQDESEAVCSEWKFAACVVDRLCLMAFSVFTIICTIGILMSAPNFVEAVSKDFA
Excerpt: as §1, §2

rat brain α4β2 nAChRs = rat brain α4β2 nAChRs (Rattus norvegicus, UniProt P09483+P12390); test: [3H]-cytisine displacement from rat brain membranes; type: binding; conditions: ± SEM; for Ki: 0.3 nM [3H]-cytisine, 4 °C 4 h; for Hill Slope: [3H]-cytisine displacement
Sequence of rat brain α4β2 nAChRs (P09483 31-630): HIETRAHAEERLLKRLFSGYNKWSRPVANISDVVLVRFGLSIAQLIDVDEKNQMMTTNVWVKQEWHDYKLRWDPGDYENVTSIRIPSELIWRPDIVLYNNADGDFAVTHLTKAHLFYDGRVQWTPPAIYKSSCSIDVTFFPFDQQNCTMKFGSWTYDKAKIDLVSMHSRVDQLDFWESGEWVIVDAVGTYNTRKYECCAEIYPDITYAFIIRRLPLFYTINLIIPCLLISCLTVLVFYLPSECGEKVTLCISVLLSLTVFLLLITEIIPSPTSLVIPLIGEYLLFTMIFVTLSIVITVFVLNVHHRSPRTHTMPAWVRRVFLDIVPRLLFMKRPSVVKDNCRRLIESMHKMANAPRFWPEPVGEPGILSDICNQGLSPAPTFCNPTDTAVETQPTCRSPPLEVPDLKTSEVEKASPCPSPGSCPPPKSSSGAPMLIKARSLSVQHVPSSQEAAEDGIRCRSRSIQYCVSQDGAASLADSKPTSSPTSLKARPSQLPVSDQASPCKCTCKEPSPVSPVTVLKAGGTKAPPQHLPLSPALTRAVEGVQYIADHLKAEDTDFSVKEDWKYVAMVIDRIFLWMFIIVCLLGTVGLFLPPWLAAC
Sequence of rat brain α4β2 nAChRs (P12390 25-500): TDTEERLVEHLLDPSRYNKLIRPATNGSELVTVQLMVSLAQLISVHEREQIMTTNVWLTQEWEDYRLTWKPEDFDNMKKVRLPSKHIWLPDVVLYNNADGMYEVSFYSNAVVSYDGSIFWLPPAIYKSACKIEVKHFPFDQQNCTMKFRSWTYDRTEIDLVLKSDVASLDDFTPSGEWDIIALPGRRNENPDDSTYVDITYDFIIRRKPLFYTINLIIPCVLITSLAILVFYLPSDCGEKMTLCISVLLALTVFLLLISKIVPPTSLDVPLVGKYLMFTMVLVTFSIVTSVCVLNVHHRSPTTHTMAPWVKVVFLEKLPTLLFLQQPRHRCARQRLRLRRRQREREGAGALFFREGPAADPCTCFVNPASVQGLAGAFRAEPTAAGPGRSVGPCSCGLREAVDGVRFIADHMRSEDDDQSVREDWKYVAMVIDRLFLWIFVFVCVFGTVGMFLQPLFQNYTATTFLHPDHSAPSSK
Experimental: [^3H]-Cytisine was purchased from New England Nuclear and iodinated α-bungarotoxin [^125I]-BTX from Amersham. […] [^3H]-Cytisine binding experiments were performed according to [57] with several modifications. Rat brain membranes were incubated with [^3H]-cytisine at 4 °C for 4 h. Then, 200 μg of membrane protein was incubated in a final volume of 500 μL binding saline at 4 °C for 4 h, while binding assays with ^125I-bungarotoxin were incubated at 37 °C for 3 h to assure that equilibrium was reached. […] Reactions were terminated by vacuum filtrations through Whatman GF/C filters (presoaked in PEI) using a Brandel cell harvester. Bound [^3H]-cytisine and ^125I-bungarotoxin were measured with liquid scintillation and gamma counters, respectively. Data were analyzed using GraphPad Prism software (San Diego, CA, USA). The data were fit by nonlinear regression analyses to a sigmoidal dose-response with variable slope. Ki values were calculated using the Cheng-Prusoff equation (K i = IC50/(1 + [RL]/Kd RL)) with a Kd RL value for each radioligand that had been previously determined. IC50 is the median inhibition concentration of the experimental compound and [RL] is the concentration of the radioligand.

human α4β2 nAChR [2] = target: T1, human α4β2 nAChR; conditions: human α4β2 nAChRs; ref Kem et al., in preparation; cited from earlier work

Sequence of rat brain α7 receptors (Q05941 23-502): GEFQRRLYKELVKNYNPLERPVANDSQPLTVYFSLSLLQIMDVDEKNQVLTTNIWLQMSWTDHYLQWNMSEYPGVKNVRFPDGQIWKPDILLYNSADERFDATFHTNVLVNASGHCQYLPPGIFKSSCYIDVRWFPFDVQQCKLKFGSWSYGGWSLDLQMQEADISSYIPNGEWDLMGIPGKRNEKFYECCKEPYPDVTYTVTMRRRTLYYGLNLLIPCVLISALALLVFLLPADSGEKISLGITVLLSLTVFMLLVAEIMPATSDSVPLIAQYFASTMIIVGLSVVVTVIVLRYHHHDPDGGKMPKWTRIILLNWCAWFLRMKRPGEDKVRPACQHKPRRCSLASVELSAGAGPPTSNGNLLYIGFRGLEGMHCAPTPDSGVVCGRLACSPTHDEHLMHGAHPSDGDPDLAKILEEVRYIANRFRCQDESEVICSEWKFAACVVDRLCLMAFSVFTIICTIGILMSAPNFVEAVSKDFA

Compound | Ki (rat brain α7 receptors) [nM] | EC50 (human α4β2 nAChR [1]) [nM] | Imax (% ACh) (human α4β2 nAChR [1]) [%ACh] | EC50 (human α7 nAChR) [nM] | Imax (% ACh) (human α7 nAChR) | agonist character at α7 nAChRs (human α7 nAChR) | Ki (rat brain α4β2 nAChRs) [nM] | Hill Slope (rat brain α4β2 nAChRs) | EC50 (human α4β2 nAChR [2]) [nM] | Imax (human α4β2 nAChR [2]) [%]
C1=CC[C@H](c2cccnc2)NC1 [R-anatabine, anatabine] | 680 ± 120 | – | – | – | – | – | – | – | – | –
C1=CC(c2cccnc2)NCC1 (stereo not drawn) [R-isoanatabine, isoanatabine] | – | 310 ± 90 | 102 ± 5.7 | 61300 ± 12000 | 35.4 ± 5.3 | weak partial agonist | 136 ± 11 | 0.94 ± 0.05 | – | –
c1cncc([C@@H]2CCCCN2)c1 [S-anabasine, anabasine] | – | – | – | – | – | – | – | – | 4000 | 78
C1=CC[C@@H](c2cccnc2)NC1 [S-anatabine, anatabine] | 236 ± 20 | – | – | – | – | – | – | – | – | –
C1=CC(c2cccnc2)NCC1 (stereo not drawn) [S-isoanatabine, isoanatabine] | – | 1010 ± 330 | 78.7 ± 1.9 | 52300 ± 13000 | 81.9 ± 9.1 | highly efficacious agonists | 108 ± 14 | 1.08 ± 0.15 | – | –
